Counter-ions that a name gives are not always drawn.
Assays:
Format in all cases: biochemical
[1] = molecular target: T1, human JAK1 (a.a. 837-1142) (Homo sapiens, UniProt P23458); assay: In vitro JAK kinase assay (HTRF, phosphorylation of a biotinylated peptide), JAK1; conditions: method AA1 (90 μM ATP) or AA2 (1000 μM ATP), not stated per value; read-out: JAK1 IC50
T1 construct: human JAK1 (a.a. 837-1142); His tag (N); made in house; host or cells: insect cells (baculovirus)
Procedure, shortened: (§1)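 Kinase reactions ran at room temperature for 1 h with ATP matched per isoform (JAK1 90 μM, JAK2 30 μM, JAK3 3 μM). After an EDTA stop, the phosphorylated biotin-peptide was read by HTRF using Eu-Py20 and SA-APC after 40 min binding.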

[2] = molecular target: T2, human JAK2 (a.a. 828-1132) (Homo sapiens, UniProt O60674); assay: In vitro JAK kinase assay (HTRF, phosphorylation of a biotinylated peptide), JAK2; conditions: method AA1 (30 μM ATP) or AA2 (1000 μM ATP), not stated per value
T2 construct: JAK2 (a.a. 828-1132); His tag (N); made in house; host or cells: insect cells (baculovirus)
T2 sequence (O60674 828-1132): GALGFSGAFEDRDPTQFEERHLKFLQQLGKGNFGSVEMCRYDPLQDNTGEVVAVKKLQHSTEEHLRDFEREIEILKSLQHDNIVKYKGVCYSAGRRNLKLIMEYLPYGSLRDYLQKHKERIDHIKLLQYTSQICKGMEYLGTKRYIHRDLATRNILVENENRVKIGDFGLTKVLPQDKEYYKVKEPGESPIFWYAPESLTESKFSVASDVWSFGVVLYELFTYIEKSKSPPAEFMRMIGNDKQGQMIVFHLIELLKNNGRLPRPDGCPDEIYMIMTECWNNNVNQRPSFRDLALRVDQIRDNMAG
Procedure, shortened: as §1

[3] = molecular target: T3, human JAK3 (a.a. 781-1124) (Homo sapiens, UniProt P52333); assay: In vitro JAK kinase assay (HTRF, phosphorylation of a biotinylated peptide), JAK3; conditions: method AA1 (3 μM ATP) or AA2 (1000 μM ATP), not stated per value
T3 construct: JAK3 (a.a. 781-1124); His tag (N); made in house; host or cells: insect cells (baculovirus)
T3 sequence (P52333 781-1124): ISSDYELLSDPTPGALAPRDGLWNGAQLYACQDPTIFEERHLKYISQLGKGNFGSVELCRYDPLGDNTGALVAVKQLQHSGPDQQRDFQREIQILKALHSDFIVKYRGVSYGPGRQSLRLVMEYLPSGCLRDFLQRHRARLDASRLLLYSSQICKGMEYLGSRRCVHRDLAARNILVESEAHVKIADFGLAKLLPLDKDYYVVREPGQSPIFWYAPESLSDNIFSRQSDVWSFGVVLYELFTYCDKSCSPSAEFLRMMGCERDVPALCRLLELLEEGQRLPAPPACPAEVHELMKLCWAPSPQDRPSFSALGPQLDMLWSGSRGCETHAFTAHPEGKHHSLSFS
Procedure, shortened: as §1

TYK2 = TYK2 (Homo sapiens, UniProt P29597); assay: TYK2 kinase inhibition (Table A1)
Chain of TYK2 (P29597 whole entry): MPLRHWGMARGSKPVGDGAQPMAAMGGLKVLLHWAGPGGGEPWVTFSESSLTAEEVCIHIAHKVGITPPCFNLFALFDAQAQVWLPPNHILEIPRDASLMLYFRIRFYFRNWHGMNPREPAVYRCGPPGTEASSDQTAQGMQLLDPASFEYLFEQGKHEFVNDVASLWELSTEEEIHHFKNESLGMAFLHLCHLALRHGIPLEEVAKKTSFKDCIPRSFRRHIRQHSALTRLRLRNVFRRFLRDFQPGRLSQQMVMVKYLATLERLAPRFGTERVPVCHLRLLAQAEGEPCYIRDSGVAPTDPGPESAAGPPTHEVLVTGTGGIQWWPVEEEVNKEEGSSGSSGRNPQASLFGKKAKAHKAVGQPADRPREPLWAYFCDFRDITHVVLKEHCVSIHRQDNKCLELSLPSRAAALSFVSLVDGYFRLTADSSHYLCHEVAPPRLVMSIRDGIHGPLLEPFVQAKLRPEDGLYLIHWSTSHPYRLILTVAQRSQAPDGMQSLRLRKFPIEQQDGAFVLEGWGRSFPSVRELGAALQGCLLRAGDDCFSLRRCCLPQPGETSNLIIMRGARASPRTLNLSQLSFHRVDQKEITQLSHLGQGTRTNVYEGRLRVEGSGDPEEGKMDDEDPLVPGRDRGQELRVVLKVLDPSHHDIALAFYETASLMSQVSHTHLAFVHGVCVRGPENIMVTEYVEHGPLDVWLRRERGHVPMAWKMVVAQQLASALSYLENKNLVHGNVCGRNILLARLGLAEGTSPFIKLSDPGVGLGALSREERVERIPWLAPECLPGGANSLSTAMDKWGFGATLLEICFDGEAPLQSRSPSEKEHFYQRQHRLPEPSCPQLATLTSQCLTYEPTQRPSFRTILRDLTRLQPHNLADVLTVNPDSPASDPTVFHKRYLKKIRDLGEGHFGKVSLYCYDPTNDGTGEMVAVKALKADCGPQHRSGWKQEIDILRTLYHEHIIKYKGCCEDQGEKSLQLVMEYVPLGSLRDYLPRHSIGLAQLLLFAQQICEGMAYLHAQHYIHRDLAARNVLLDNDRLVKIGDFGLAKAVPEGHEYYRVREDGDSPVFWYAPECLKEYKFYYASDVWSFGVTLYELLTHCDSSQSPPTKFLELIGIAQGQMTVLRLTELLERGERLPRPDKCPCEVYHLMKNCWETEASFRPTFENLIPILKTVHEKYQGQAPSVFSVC

[4] = molecular target: T4, Recombinant Human Anaplastic Lymphoma Kinase (Homo sapiens, UniProt Q9UM73); assay: ALK HTRF kinase assay; conditions: compound at 500 nM or 1 mM; 90 μM ATP
T4 construct: purchased Invitrogen, Carlsbad, Calif
T4 sequence (Q9UM73 19-1620): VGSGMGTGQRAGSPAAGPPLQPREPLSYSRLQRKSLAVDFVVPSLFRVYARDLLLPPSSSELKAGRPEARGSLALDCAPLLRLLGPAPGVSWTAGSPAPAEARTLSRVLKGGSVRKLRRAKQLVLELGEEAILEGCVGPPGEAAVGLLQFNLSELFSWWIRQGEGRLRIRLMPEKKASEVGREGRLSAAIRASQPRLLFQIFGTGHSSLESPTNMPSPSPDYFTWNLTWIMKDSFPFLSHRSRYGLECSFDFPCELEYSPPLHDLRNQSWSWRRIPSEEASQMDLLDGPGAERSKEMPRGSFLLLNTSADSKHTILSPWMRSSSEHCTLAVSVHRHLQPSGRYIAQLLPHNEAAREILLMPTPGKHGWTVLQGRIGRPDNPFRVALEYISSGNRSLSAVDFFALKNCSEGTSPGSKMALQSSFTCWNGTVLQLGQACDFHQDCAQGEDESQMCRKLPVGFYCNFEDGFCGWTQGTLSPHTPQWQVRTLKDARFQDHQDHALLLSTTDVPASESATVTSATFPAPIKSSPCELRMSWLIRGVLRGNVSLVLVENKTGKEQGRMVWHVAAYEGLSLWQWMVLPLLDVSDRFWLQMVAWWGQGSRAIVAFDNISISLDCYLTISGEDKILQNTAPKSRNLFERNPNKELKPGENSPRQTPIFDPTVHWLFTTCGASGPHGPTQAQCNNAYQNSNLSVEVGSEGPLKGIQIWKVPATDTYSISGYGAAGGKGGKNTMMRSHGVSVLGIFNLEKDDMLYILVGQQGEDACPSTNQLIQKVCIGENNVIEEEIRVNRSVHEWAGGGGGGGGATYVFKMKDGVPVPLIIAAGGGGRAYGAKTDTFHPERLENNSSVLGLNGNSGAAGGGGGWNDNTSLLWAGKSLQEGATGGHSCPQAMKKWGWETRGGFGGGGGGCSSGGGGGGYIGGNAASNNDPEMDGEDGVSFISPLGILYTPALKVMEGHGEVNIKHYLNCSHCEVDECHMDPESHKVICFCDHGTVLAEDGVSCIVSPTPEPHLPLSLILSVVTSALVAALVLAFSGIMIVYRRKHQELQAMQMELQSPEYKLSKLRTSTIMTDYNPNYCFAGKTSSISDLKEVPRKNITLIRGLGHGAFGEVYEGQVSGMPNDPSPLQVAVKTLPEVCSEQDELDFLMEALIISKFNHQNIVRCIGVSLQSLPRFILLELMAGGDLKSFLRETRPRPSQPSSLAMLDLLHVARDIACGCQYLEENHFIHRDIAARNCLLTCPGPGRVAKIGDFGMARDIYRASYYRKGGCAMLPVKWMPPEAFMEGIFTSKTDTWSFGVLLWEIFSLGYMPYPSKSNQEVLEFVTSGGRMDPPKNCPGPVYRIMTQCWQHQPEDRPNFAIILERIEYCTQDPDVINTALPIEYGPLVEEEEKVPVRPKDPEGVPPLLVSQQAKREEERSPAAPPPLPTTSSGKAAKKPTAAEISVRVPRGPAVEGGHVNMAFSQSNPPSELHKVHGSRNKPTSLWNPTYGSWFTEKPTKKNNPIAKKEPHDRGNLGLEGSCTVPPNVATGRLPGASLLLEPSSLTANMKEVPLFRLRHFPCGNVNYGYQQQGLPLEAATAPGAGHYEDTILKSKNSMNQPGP
Procedure, shortened: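 Recombinant human ALK with biotinylated peptide substrate; phosphorylation detected by HTRF using Eu-labelled anti-phosphotyrosine antibody and streptavidin-allophycocyanin. IC50 from a sigmoidal fit with Hill slope.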

T1 sequence (P23458 849-1154): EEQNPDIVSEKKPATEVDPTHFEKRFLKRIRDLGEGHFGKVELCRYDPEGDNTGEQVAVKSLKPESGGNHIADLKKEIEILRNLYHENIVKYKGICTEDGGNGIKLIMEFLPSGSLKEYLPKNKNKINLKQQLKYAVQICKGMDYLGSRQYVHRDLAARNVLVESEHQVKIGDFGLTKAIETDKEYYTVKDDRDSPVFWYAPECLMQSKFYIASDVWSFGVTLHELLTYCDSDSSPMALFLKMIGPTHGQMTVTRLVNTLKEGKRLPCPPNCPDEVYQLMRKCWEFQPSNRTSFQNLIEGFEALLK

IC50 [1]	IC50 [2]	IC50 [3]	IC50 (TYK2)	ALK % of inhibition at a concentration of 500 nM or 1 mM [4]	Structure (SMILES)
12 nM	17 nM	178 nM	24 nM	32%	Cn1cc(C(=O)N2CCC(CC(=O)Nc3ccc4cc3CCc3cncc(c3)Nc3ncc(Cl)c(n3)N4)CC2)cn1 [Example A129, N-[6-Chloro-2,4,8,18,22-pentaazatetracyclo[14.3.1.1(3,7).1(9,13)]docosa-1(20),3(22),4,6,9(21),10,12,16,18-nonaen-12-yl]-2-{1-[(1-methyl-1H-pyrazol-4-yl)carbonyl]piperidin-4-yl}acetamide bis(trifluoroacetate)]
1.2 nM	9.2 nM	203 nM	4.8 nM	26%	Cn1ccc(C(=O)N2CCC(CC(=O)Nc3ccc4cc3CCc3cncc(c3)Nc3ncc(Cl)c(n3)N4)CC2)n1 [Example A130, N-[6-Chloro-2,4,8,18,22-pentaazatetracyclo[14.3.1.1(3,7).1(9,13)]docosa-1(20),3(22),4,6,9(21),10,12,16,18-nonaen-12-yl]-2-{1-[(1-methyl-1H-pyrazol-3-yl)carbonyl]piperidin-4-yl}acetamide bis(trifluoroacetate)]
6.6 nM	36 nM	225 nM	45 nM	20%	Cc1oncc1C(=O)N1CCC(CC(=O)Nc2ccc3cc2CCc2cncc(c2)Nc2ncc(Cl)c(n2)N3)CC1 [Example A131, N-[6-Chloro-2,4,8,18,22-pentaazatetracyclo[14.3.1.1(3,7).1(9,13)]docosa-1(20),3(22),4,6,9(21),10,12,16,18-nonaen-12-yl]-2-{1-[(5-methylisoxazol-4-yl)carbonyl]piperidin-4-yl}acetamide bis(trifluoroacetate)]
7.9 nM	18 nM	248 nM	17 nM	23%	Cc1ncoc1C(=O)N1CCC(CC(=O)Nc2ccc3cc2CCc2cncc(c2)Nc2ncc(Cl)c(n2)N3)CC1 [Example A132, N-[6-Chloro-2,4,8,18,22-pentaazatetracyclo[14.3.1.1(3,7).1(9,13)]docosa-1(20),3(22),4,6,9(21),10,12,16,18-nonaen-12-yl]-2-{1-[(4-methyl-1,3-oxazol-5-yl)carbonyl]piperidin-4-yl}acetamide bis(trifluoroacetate)]
2.1 nM	11 nM	73 nM	5.5 nM	32%	O=C(CC1CCN(C(=O)c2nccs2)CC1)Nc1ccc2cc1CCc1cncc(c1)Nc1ncc(Cl)c(n1)N2 [Example A133, N-[6-Chloro-2,4,8,18,22-pentaazatetracyclo[14.3.1.1(3,7).1(9,13)]docosa-1(20),3(22),4,6,9(21),10,12,16,18-nonaen-12-yl]-2-[1-(1,3-thiazol-2-ylcarbonyl)piperidin-4-yl]acetamide bis(trifluoroacetate)]
6.2 nM	18 nM	226 nM	25 nM	30%	Cn1cncc1C(=O)N1CCC(CC(=O)Nc2ccc3cc2CCc2cncc(c2)Nc2ncc(Cl)c(n2)N3)CC1 [Example A134, N-[6-Chloro-2,4,8,18,22-pentaazatetracyclo[14.3.1.1(3,7).1(9,13)]docosa-1(20),3(22),4,6,9(21),10,12,16,18-nonaen-12-yl]-2-{1-[(1-methyl-1H-imidazol-5yl)carbonyl]piperidin-4-yl}acetamide bis(trifluoroacetate)]
0.4 nM	2.3 nM	79 nM	0.9 nM	30%	O=C(CC1CCN(C(=O)c2ccon2)CC1)Nc1ccc2cc1CCc1cncc(c1)Nc1ncc(Cl)c(n1)N2 [Example A135, N-[6-Chloro-2,4,8,18,22-pentaazatetracyclo[14.3.1.1(3,7).1(9,13)]docosa-1(20),3(22),4,6,9(21),10,12,16,18-nonaen-12-yl]-2-[1-(isoxazol-3-ylcarbonyl)piperidin-4-yl]acetamide bis(trifluoroacetate)]
0.4 nM	2.4 nM	57 nM	2.1 nM	38%	O=C(CC1CCN(C(=O)c2nc[nH]n2)CC1)Nc1ccc2cc1CCc1cncc(c1)Nc1ncc(Cl)c(n1)N2 [Example A136, N-[6-Chloro-2,4,8,18,22-pentaazatetracyclo[14.3.1.1(3,7).1(9,13)]docosa-1(20),3(22),4,6,9(21),10,12,16,18-nonaen-12-yl]-2-[1-(1H-1,2,4-triazol-3-ylcarbonyl)piperidin-4-yl]acetamide bis(trifluoroacetate)]
0.6 nM	3 nM	41 nM	1 nM	54%	O=C(CC1CCN(C(=O)c2c[nH]nn2)CC1)Nc1ccc2cc1CCc1cncc(c1)Nc1ncc(Cl)c(n1)N2 [Example A137, N-[6-Chloro-2,4,8,18,22-pentaazatetracyclo[14.3.1.1(3,7).1(9,13)]docosa-1(20),3(22),4,6,9(21),10,12,16,18-nonaen-12-yl]-2-[1-(1H-1,2,3-triazol-4-ylcarbonyl)piperidin-4-yl]acetamide bis(trifluoroacetate)]

Further lines, the molecule ahead of its results:

Structure (SMILES)	IC50 [1]	IC50 [2]	IC50 [3]	IC50 (TYK2)	ALK % of inhibition at a concentration of 500 nM or 1 mM [4]
Cc1cc(C(=O)N2CC[C@@H](C(=O)Nc3ccc4cc3CCc3cccc(c3)Nc3ncc(Cl)c(n3)N4)C2)no1 [Example A122, (3R)—N-[6-Chloro-2,4,8,22-tetraazatetracyclo[14.3.1.1(3,7).1(9,13)]docosa-1(20),3(22),4,6,9(21),10,12,16,18-nonaen-12-yl]-1-[(5-methylisoxazol-3-yl)carbonyl]pyrrolidine-4-carboxamide trifluoroacetate]	7.2 nM	3.9 nM	7.3 nM	17 nM	52%
Cc1cc(C(=O)N2CCN(CC(=O)Nc3ccc4cc3CCc3cccc(c3)Nc3ncc(Cl)c(n3)N4)CC2)no1 [Example A123, N-[6-Chloro-2,4,8,22-tetraazatetracyclo[14.3.1.1(3,7).1(9,13)]docosa-1(20),3(22),4,6,9(21),10,12,16,18-nonaen-12-yl]-2-{4-[(5-methylisoxazol-3-yl)carbonyl]piperazin-1-yl}acetamide bis(trifluoroacetate)]	7.2 nM	9.6 nM	68 nM	8.3 nM	26%
Cc1cc(C(=O)N2CCC(CCC(=O)Nc3ccc4cc3CCc3cccc(c3)Nc3ncc(Cl)c(n3)N4)CC2)no1 [Example A124, N-[6-Chloro-2,4,8,22-tetraazatetracyclo[14.3.1.1(3,7).1(9,13)]docosa-1(20),3(22),4,6,9(21),10,12,16,18-nonaen-12-yl]-3-{1-[(5-methylisoxazol-3-yl)carbonyl]piperidin-4-yl}propanamide trifluoroacetate]	0.6 nM	2.5 nM	39 nM	5.4 nM	34%
Cc1cc(C(=O)N2CCC(CCC(=O)Nc3ccc4cc3CCc3cncc(c3)Nc3ncc(Cl)c(n3)N4)CC2)no1 [Example A125, N-[6-Chloro-2,4,8,18,22-pentaazatetracyclo[14.3.1.1(3,7).1(9,13)]docosa-1(20),3(22),4,6,9(21),10,12,16,18-nonaen-12-yl]-3-{1-[(5-methylisoxazol-3-yl)carbonyl]piperidin-4-yl}propanamide bis(trifluoroacetate)]	1.7 nM	4.9 nM	90 nM	5.3 nM	25%
CC(=O)N1CCN(CC(=O)Nc2ccc3cc2CCc2cncc(c2)Nc2ncc(Cl)c(n2)N3)CC1 [Example A127, 2-(4-Acetylpiperazin-1-yl)-N-[6-chloro-2,4,8,18,22-pentaazatetracyclo[14.3.1.1(3,7).1(9,13)]docosa-1(20),3(22),4,6,9(21),10,12,16,18-nonaen-12-yl]acetamide tris(trifluoroacetate)]	31 nM	64 nM	350 nM	59 nM	15%
O=C(CC1CCN(C(=O)c2ccno2)CC1)Nc1ccc2cc1CCc1cncc(c1)Nc1ncc(Cl)c(n1)N2 [Example A128, N-[6-Chloro-2,4,8,18,22-pentaazatetracyclo[14.3.1.1(3,7).1(9,13)]docosa-1(20),3(22),4,6,9(21),10,12,16,18-nonaen-12-yl]-2-[1-(isoxazol-5-ylcarbonyl)piperidin-4-yl]acetamide bis(trifluoroacetate)]	0.6 nM	4.1 nM	64 nM	1.6 nM	34%

Reference: patent US8871753B2, “Macrocyclic compounds and their use as kinase inhibitors” (Incyte Corporation, priority 2008, dated 2014)
